Values after ≈ are worked out from the molar mass of the structure shown. Read-outs that look alike come from different tables or passages of the source.
Key:
Assay type in all cases: cell-based
E. coli ATCC25922 = experiment: Bacterial growth minimal inhibitory concentration (microdilution, cation-adjusted Mueller-Hinton Broth); conditions: Escherichia coli, ATCC25922; quinolone-sensitive strain; read-out: MIC for E. coli ATCC25922
How it was run: (§1)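 Broth microdilution in cation-adjusted Mueller-Hinton Broth per CLSI M7-A7, MIC in mg/L. K. pneumoniae A-651 is multiply resistant, including to quinolones. E. coli ATCC25922 and P. aeruginosa ATCC27853 are quinolone-sensitive.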

K. pneumoniae A-651 = experiment: as above; conditions: Klebsiella pneumoniae, A651; multiply-resistant strain (in particular quinolone-resistant); read-out: MIC for K. Pneumoniae A-651
How it was run: as §1

P. aeruginosa ATCC27853 = experiment: as above; conditions: Pseudomonas aeruginosa, ATCC27853, quinolone-sensitive strain; read-out: MIC for P. aeruginosa ATCC27853
How it was run: as §1

wild-type E. coli A-1261 = experiment: MIC against wild-type E. coli A-1261 with or without alkaline phosphatase or esterase; conditions: Escherichia coli
Method: Minimal Inhibitory Concentrations (MICs; mg/L) were determined in cation-adjusted Mueller-Hinton Broth by a microdilution method following the description given in “Methods for Dilution Antimicrobial Susceptibility Tests for Bacteria that Grow Aerobically”, Approved standard, 7th ed., a Clinical and Laboratory Standards Institute (CLSI) Document M7-A7, Wayne, Pa., USA (2006).
The compounds of Examples 37, 50, 51 and 74 were tested against wild-type E. coli A-1261 in the absence of alkaline phosphatase or esterase, in the presence of an alkaline phosphatase and in the presence of an esterase. The corresponding antibacterial test results are given in Table 2 hereafter (MICs in mg/L).

[1] = read-out: MIC for E. coli A-1261 In the absence of alkaline phosphatase or esterase
[2] = read-out: MIC for E. coli A-1261 In the presence of an alkaline phosphatase (2 i.U./mL)
[3] = read-out: MIC for E. coli A-1261 In the presence of an esterase (10 i.U./mL)

MIC (E. coli ATCC25922) [µg/mL] | MIC (K. pneumoniae A-651) [µg/mL] | MIC (P. aeruginosa ATCC27853) [µg/mL] | MIC (wild-type E. coli A-1261; [1]) [µg/mL] | MIC (wild-type E. coli A-1261; [2]) [µg/mL] | MIC (wild-type E. coli A-1261; [3]) [µg/mL] | SMILES
0.5 | 1 | 4 | 0.25 | 0.125 | 0.25 | CN(C)CC(=O)OCC1(c2ccc(C#Cc3cc4n(c3)C(=O)N(CC[C@](C)(C(=O)NO)S(C)(=O)=O)C4)cc2)CC1.Cl [Example 37, (R)-(1-(4-((2-(4-(hydroxyamino)-3-methyl-3-(methylsulfonyl)-4-oxobutyl)-3-oxo-2,3-dihydro-1H-pyrrolo[1,2-c]imidazol-6-yl)ethynyl)phenyl)cyclopropyl)methyl dimethylglycinate hydrochloride]
– | – | – | 2 | 1 | 0.5 | CN(C)CC(=O)OCC1(C#CC#Cc2cc3n(c2)C(=O)N(CC[C@](C)(C(=O)NO)S(C)(=O)=O)C3)CC1.Cl [Example 50, (R)-(1-((2-(4-(hydroxyamino)-3-methyl-3-(methylsulfonyl)-4-oxobutyl)-3-oxo-2,3-dihydro-1H-pyrrolo[1,2-c]imidazol-6-yl)buta-1,3-diyn-1-yl)cyclopropyl)methyl dimethylglycinate hydrochloride]
– | – | – | > 16 | 0.5 | 16 | C[C@@](CCN1Cc2cc(C#CC#CC3(COP(=O)(O)O)CC3)cn2C1=O)(C(=O)NO)S(C)(=O)=O [Example 51, (R)-(1-((2-(4-(hydroxyamino)-3-methyl-3-(methylsulfonyl)-4-oxobutyl)-3-oxo-2,3-dihydro-1H-pyrrolo[1,2-c]imidazol-6-yl)buta-1,3-diyn-1-yl)cyclopropyl)methyl dihydrogen phosphate]
– | – | – | 4 (≈ 6.99 µM) | 0.25 | 4 | C[C@@](CCN1Cc2cc(C#CC#CC3(NC(=O)OCOP(=O)(O)O)CC3)cn2C1=O)(C(=O)NO)S(C)(=O)=O [Example 74, (phosphonooxy)methyl (R)-(1-((2-(4-(hydroxyamino)-3-methyl-3-(methylsulfonyl)-4-oxobutyl)-3-oxo-2,3-dihydro-1H-pyrrolo[1,2-c]imidazol-6-yl)buta-1,3-diyn-1-yl)cyclopropyl)carbamate]
1 (≈ 1.89 µM) | 2 (≈ 3.78 µM) | 1 (≈ 1.89 µM) | – | – | – | C[C@@](CCN1Cc2cc(C#Cc3ccc(CN4CCC(O)CC4)cc3)cn2C1=O)(C(=O)NO)S(C)(=O)=O [Example 80, (R)-N-hydroxy-4-(6-((4-((4-hydroxypiperidin-1-yl)methyl)phenyl)ethynyl)-3-oxo-1H-pyrrolo[1,2-c]imidazol-2(3H)-yl)-2-methyl-2-(methylsulfonyl)butanamide]
8 (≈ 15.6 µM) | 16 (≈ 31.2 µM) | 2 (≈ 3.89 µM) | – | – | – | C[C@@](CCN1Cc2cc(C#Cc3ccc(N4CCC(N)CC4)cc3)cn2C1=O)(C(=O)NO)S(C)(=O)=O [Example 81, (R)-4-(6-((4-(4-aminopiperidin-1-yl)phenyl)ethynyl)-3-oxo-1H-pyrrolo[1,2-c]imidazol-2(3H)-yl)-N-hydroxy-2-methyl-2-(methylsulfonyl)butanamide]
0.5 (≈ 0.957 µM) | 1 (≈ 1.91 µM) | 1 (≈ 1.91 µM) | – | – | – | C[C@@](CCN1Cc2cc(C#Cc3ccc(CNS(C)(=O)=O)cc3)cn2C1=O)(C(=O)NO)S(C)(=O)=O [Example 82, (R)-N-hydroxy-2-methyl-4-(6-((4-(methylsulfonamidomethyl)phenyl)ethynyl)-3-oxo-1H-pyrrolo[1,2-c]imidazol-2(3H)-yl)-2-(methylsulfonyl)butanamide]
0.5 (≈ 1.05 µM) | 0.5 (≈ 1.05 µM) | 1 (≈ 2.11 µM) | – | – | – | C[C@@](CCN1Cc2cc(C#CC#CC3CN(C4COC4)C3)cn2C1=O)(C(=O)NO)S(C)(=O)=O [Example 83, (R)-N-hydroxy-2-methyl-2-(methylsulfonyl)-4-(6-((1-(oxetan-3-yl)azetidin-3-yl)buta-1,3-diyn-1-yl)-3-oxo-1H-pyrrolo[1,2-c]imidazol-2(3H)-yl)butanamide]

Reference: patent publication US10106544B2, “1,2-dihydro-3H-pyrrolo[1,2-C]imidazol-3-one derivatives and their use as antibacterial agents” (priority 2014, dated 2018)
